Results taken from patent US20100035996A1, “GLUCOSE METABOLISM STIMULATING AGENT” (Shionogi & Co Ltd, priority 2006, published 2010).

Assays:
Assay type in all cases: in vivo
[1] = test system: male C57BL/6J-ob/ob mice; test: Glucose tolerance test in obesity model mice, administration for 4 weeks; conditions: for AUC of plasma glucose levels in glucose tolerance test: oral glucose 2 g/kg, 0-120 min, control 29863
Protocol: (§1) The following Examples 1 to 3 were carried out in an obesity model mouse, male C57BL/6J-ob/ob mice (12-17 week old, 40-60 g) to study the effect of Compound (a) on glucose metabolism in mice.
(§2) Hydroxypropylmethyl cellulose solution (0.5% w/v, Shin-Etsu Chemical Co., Ltd) or Compound (a) or (b) suspended in the solution were orally administered at 25, 50 or 100 mg/kg twice a day (8:00-10:00, 16:30-18:00) for 4 weeks. Food was removed in the morning (8:00-9:00) of the last day of administration. Mice were kept under fasting until the end of glucose tolerance test. In this period, the mice were allowed free access to water. The next day, glucose tolerance test was carried out in the afternoon (13:00-16:00). Blood was collected from tail veins just before and at 15, 30, 60 and 120 minutes after oral administration of glucose (2 g/kg) to examine plasma glucose levels. AUC (area under the curve) was calculated by the trapezoidal method from the graphs made with obtained values (FIG. 1). AUCs in mice treated with Compound (a) at 25 mg/kg, 50 mg/kg and 100 mg/kg were 25610 mg·min/dL, 20315 mg·min/dL and 15848 mg·min/dL, respectively. AUC in control mice (dosed with 0.5% hydroxypropylmethyl cellulose solution) was 29863 mg·min/dL.

[2] = test system: male C57BL/6J-ob/ob mice; test: Body weight change during the 4-week dosing period; conditions: 25, 50 or 100 mg/kg orally twice a day for 4 weeks (FIG. 2)
Protocol: as §1, §2

[3] = test system: male C57BL/6J-ob/ob mice; test: Glucose tolerance test in obesity model mice, short-term administration; conditions: 100 mg/kg oral gavage
Protocol: as §1
Compound (a) was administered to mice for short term and then glucose tolerance test was performed. In the morning (8:00-10:00) of the previous day of the test, hydroxypropylmethyl cellulose solution (0.5% w/v, Shin-Etsu Chemical Co., Ltd) or Compound (a) at 100 mg/kg suspended in the solution was administered by oral gavage. Food was removed just after the administration. Mice were kept under fasting until the end of glucose tolerance test. In this period, the mice were allowed free access to water. The oral administration was also performed in the evening of the previous day of the test (17:00-18:00) and in the morning of the day of the test (8:00-9:00). Glucose tolerance test was carried out in the afternoon (13:00-16:00), and AUC was calculated as described in Example 1 (FIG. 3).

[4] = test system: male C57BL/6J-ob/ob mice; test: Glucose tolerance test in obesity model mice, administration for 1 week; conditions: 100 mg/kg orally twice a day for a week
Protocol: as §1
Hydroxypropylmethyl cellulose solution (0.5% w/v, Shin-Etsu Chemical Co., Ltd) or Compound (b) suspended in the solution were orally administered at 100 mg/kg twice a day (8:00-10:00, 16:30-18:00) for a week. Food was removed in the morning (8:00-9:00) of the last day of administration. Mice were kept under fasting until the end of glucose tolerance test. In this period, the mice were allowed free access to water. The next day, glucose tolerance test was carried out in the afternoon (13:00-16:00) and then AUC was calculated as described in Example 1 (FIG. 4).

[5] = 100 mg/kg orally twice a day for 4 weeks

CC(C)(C)S(=O)(=O)N[C@H]1CC[C@H](C(=O)Nc2ccc(C(F)(F)F)cn2)CC1 [Compound (a)]
AUC of plasma glucose levels in glucose tolerance test ([1]; 25 mg/kg orally twice a day for 4 weeks): 25610 mg·min/dL
AUC of plasma glucose levels in glucose tolerance test ([1]; 50 mg/kg orally twice a day for 4 weeks): 20315 mg·min/dL
AUC compared to control mice [1, 5]: statistically significant decrease
AUC of plasma glucose levels in glucose tolerance test [1, 5]: 15848 mg·min/dL
AUC change across doses ([1]; 25, 50, 100 mg/kg orally twice a day for 4 weeks): decreased with dose-dependent manner
Change in body weight during the dosing period [2]: no statistically significant change
AUC of plasma glucose levels in glucose tolerance test ([3]; three doses (morning and evening of previous day, morning of test day), control 15033): 22423 mg·min/dL
AUC compared to control mice ([3]; three doses, short term): statistically significant decrease

CCS(=O)(=O)N[C@H]1CC[C@H](C(=O)Nc2ccc(N3C[C@@H](C)O[C@@H](C)C3)cc2)CC1 [Compound (b)]
AUC compared to control mice [4]: statistically significant decrease
AUC of plasma glucose levels in glucose tolerance test ([4]; control 22532): 15546 mg·min/dL
